{"source": "paper PMC4574636", "about": "(Biochemical pharmacology, 2015)", "key": {"[1]": {"details": "cited from earlier work"}, "AOX1": {"molecular_target": "T1, AOX1 (Macaca mulatta, UniProt I0FRB2)", "T1 sequence (I0FRB2 1-1338)": "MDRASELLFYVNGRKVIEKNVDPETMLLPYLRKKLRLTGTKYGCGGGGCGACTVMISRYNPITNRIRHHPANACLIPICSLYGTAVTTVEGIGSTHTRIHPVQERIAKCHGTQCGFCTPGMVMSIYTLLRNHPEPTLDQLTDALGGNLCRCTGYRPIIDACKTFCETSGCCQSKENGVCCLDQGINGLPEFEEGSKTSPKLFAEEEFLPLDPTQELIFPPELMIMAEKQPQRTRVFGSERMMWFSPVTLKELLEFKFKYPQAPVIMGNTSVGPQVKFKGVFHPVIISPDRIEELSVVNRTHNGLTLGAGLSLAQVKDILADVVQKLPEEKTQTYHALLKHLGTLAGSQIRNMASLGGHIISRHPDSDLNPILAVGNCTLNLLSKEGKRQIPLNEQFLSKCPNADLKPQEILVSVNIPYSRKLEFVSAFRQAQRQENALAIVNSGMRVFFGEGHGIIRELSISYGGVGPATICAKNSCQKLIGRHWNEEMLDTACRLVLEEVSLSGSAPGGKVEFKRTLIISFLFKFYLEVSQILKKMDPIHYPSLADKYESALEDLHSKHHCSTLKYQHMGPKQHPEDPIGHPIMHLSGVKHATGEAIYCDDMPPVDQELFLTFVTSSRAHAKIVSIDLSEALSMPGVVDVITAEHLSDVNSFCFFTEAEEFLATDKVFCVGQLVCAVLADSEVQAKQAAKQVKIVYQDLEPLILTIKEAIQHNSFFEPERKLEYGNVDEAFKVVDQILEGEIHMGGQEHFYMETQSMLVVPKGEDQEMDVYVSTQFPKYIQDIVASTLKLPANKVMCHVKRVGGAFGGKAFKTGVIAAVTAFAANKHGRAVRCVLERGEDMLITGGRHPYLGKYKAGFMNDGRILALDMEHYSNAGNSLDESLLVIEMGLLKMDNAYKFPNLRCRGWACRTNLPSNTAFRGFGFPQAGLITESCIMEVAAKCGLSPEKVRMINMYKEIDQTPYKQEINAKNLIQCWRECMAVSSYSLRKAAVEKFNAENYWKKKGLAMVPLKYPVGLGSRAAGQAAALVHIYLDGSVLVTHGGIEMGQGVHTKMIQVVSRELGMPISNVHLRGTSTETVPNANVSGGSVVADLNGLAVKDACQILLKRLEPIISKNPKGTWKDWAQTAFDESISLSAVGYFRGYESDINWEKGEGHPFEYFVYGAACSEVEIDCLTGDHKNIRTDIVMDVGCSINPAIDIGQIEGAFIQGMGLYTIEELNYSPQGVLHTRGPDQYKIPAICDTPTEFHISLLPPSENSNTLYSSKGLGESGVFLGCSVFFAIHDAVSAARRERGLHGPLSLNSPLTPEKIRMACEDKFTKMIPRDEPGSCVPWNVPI", "details": "monkey liver cytosol; calculated from Vmax and AOX1 level (figure 1A)"}, "aldehyde oxidase (AOX)": {"molecular_target": "T2, aldehyde oxidase (AOX) (Cavia porcellus, UniProt H9TB17)", "T2 sequence (H9TB17 1-1332)": "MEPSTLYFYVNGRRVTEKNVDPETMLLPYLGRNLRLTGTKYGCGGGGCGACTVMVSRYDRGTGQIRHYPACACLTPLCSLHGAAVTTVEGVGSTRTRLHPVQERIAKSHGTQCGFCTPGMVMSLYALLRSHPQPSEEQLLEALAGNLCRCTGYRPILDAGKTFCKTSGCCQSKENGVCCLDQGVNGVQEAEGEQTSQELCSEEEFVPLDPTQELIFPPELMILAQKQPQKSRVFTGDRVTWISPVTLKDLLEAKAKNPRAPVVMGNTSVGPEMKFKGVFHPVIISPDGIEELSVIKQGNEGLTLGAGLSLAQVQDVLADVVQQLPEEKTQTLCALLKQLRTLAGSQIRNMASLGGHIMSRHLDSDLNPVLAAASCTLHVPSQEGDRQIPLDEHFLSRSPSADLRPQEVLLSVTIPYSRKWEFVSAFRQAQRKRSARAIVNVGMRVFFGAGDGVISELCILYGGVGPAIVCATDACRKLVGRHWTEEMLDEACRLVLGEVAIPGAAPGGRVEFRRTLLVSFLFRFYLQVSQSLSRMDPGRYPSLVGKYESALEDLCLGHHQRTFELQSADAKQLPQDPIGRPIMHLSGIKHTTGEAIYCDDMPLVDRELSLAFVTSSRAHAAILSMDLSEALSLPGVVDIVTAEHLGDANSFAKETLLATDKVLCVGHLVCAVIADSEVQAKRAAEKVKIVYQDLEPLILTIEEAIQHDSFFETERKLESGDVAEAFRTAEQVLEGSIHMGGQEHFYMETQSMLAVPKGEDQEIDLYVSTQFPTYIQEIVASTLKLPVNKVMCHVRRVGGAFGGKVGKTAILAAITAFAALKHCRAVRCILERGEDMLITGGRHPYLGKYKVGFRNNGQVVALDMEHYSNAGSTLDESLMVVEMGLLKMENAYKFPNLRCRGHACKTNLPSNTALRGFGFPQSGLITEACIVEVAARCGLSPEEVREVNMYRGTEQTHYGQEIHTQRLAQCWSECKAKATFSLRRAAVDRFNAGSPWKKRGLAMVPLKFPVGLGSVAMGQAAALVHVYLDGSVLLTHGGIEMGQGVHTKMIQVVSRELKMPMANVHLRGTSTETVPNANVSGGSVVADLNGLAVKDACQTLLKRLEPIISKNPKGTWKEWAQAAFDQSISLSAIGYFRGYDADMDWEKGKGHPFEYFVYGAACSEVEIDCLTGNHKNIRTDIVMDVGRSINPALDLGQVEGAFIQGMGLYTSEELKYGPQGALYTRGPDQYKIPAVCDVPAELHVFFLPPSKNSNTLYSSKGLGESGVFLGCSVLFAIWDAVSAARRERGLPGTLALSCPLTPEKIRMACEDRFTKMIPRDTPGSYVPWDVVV", "details": "guinea pig liver cytosol, mean ± SEM; estimate, saturation incomplete"}}, "data": [{"molecule": "CN(Cc1cnc2nc(N)nc(N)c2n1)c1ccc(C(=O)N[C@@H](CCC(=O)O)C(=O)O)cc1", "note": "[Methotrexate, 4-amino-N^1^0-methylpteroglutamic acid]", "values": [{"measurement": "7-hydroxymethotrexate in vivo", "setting": "[1]; conventional dose levels of methotrexate in primates", "value": "not detected"}, {"measurement": "Parent compound excreted as 7-hydroxymethotrexate", "setting": "[1]; high dose (> 50 mg methotrexate/kg) therapy regimes", "value": "≤ 33", "unit": "%"}, {"measurement": "kcat (Vmax/[AOX1])", "setting": "AOX1", "value": 0.583, "unit": "s⁻¹"}, {"measurement": "Vmax", "setting": "aldehyde oxidase (AOX)", "value": "70 ± 10", "unit": "pmol/min/mg"}]}]}
